In the supplement of paper PMC10307832:

Columns and labels:
Test in all cases: relative viability (nuclei count vs DMSO), 5 days (fraction); higher = more cells survive
RERF-LC-KJ = test system: RERF-LC-KJ
Outline: (§1)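 Lung cancer cell lines in 1536-well plates got either a single drug or a fixed anchor-drug dose together with five library-drug doses (not always all listed) in √10 steps, by pin tool, on the day after seeding. Nuclei were counted after 5 days, and relative viability is the treated-to-vehicle ratio of nuclei counts. Values are medians of duplicate plates.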

NCI-H1915 = test system: NCI-H1915
Outline: as §1

NCI-H1755 = test system: NCI-H1755
Outline: as §1

LC-2-ad = test system: LC-2-ad
Outline: as §1

SW 1573 = test system: SW 1573
Outline: as §1

HOP-62 = test system: HOP-62
Outline: as §1

PC-3 [JPC-3] = test system: PC-3 [JPC-3]
Outline: as §1

NCI-H2342 = test system: NCI-H2342
Outline: as §1

NCI-H2347 = test system: NCI-H2347
Outline: as §1

NCI-H2126 = test system: NCI-H2126
Outline: as §1

NCI-H2228 = test system: NCI-H2228
Outline: as §1

NCI-H358 = test system: NCI-H358
Outline: as §1

NCI-H1734 = test system: NCI-H1734
Outline: as §1

HCC-15 = test system: HCC-15
Outline: as §1

NCI-H522 = test system: NCI-H522
Outline: as §1

LXF-289 = test system: LXF-289
Outline: as §1

HCC-78 = test system: HCC-78
Outline: as §1

A-427 = test system: A-427
Outline: as §1

NCI-H647 = test system: NCI-H647
Outline: as §1

NCI-H1975 = test system: NCI-H1975
Outline: as §1

NCI-H1792 = test system: NCI-H1792
Outline: as §1

SK-LU-1 = test system: SK-LU-1
Outline: as §1

## O=c1cc(N2CCOCC2)oc2c(-c3cccc4c3sc3ccccc34)cccc12 + Cc1nc(Nc2ncc(C(=O)Nc3c(C)cccc3Cl)s2)cc(N2CCN(CCO)CC2)n1 [Dasatinib] (partner 0.075 µM)
RERF-LC-KJ; first compound 0.01 µM
  relative viability: 0.85
RERF-LC-KJ; first compound 0.03162 µM
  relative viability: 0.918
RERF-LC-KJ; first compound 0.1 µM
  relative viability: 0.934
RERF-LC-KJ; first compound 0.3162 µM
  relative viability: 0.769
RERF-LC-KJ; first compound 1 µM
  relative viability: 0.818
NCI-H1915; first compound 0.01 µM
  relative viability: 0.33
NCI-H1915; first compound 0.03162 µM
  relative viability: 0.334
NCI-H1915; first compound 0.1 µM
  relative viability: 0.314
NCI-H1915; first compound 0.3162 µM
  relative viability: 0.321
NCI-H1915; first compound 1 µM
  relative viability: 0.316
NCI-H1755; first compound 0.01 µM
  relative viability: 0.511
NCI-H1755; first compound 0.03162 µM
  relative viability: 0.412
NCI-H1755; first compound 0.1 µM
  relative viability: 0.471
NCI-H1755; first compound 0.3162 µM
  relative viability: 0.416
NCI-H1755; first compound 1 µM
  relative viability: 0.415
LC-2-ad; first compound 0.01 µM
  relative viability: 0.536
LC-2-ad; first compound 0.03162 µM
  relative viability: 0.688
LC-2-ad; first compound 0.1 µM
  relative viability: 0.775
LC-2-ad; first compound 0.3162 µM
  relative viability: 0.578
LC-2-ad; first compound 1 µM
  relative viability: 0.527
SW 1573; first compound 0.01 µM
  relative viability: 0.463
SW 1573; first compound 0.03162 µM
  relative viability: 0.482
SW 1573; first compound 0.1 µM
  relative viability: 0.535
SW 1573; first compound 0.3162 µM
  relative viability: 0.546
SW 1573; first compound 1 µM
  relative viability: 0.475
HOP-62; first compound 0.01 µM
  relative viability: 0.676
HOP-62; first compound 0.03162 µM
  relative viability: 0.676
HOP-62; first compound 0.1 µM
  relative viability: 0.672
HOP-62; first compound 0.3162 µM
  relative viability: 0.639
HOP-62; first compound 1 µM
  relative viability: 0.616
PC-3 [JPC-3]; first compound 0.01 µM
  relative viability: 0.97
PC-3 [JPC-3]; first compound 0.03162 µM
  relative viability: 0.974
PC-3 [JPC-3]; first compound 0.1 µM
  relative viability: 1.02
PC-3 [JPC-3]; first compound 0.3162 µM
  relative viability: 0.935
PC-3 [JPC-3]; first compound 1 µM
  relative viability: 0.993
NCI-H2342; first compound 0.01 µM
  relative viability: 0.352
NCI-H2342; first compound 0.03162 µM
  relative viability: 0.307
NCI-H2342; first compound 0.1 µM
  relative viability: 0.332
NCI-H2342; first compound 0.3162 µM
  relative viability: 0.322
NCI-H2342; first compound 1 µM
  relative viability: 0.325
NCI-H2347; first compound 0.01 µM
  relative viability: 0.316
NCI-H2347; first compound 0.03162 µM
  relative viability: 0.284
NCI-H2347; first compound 0.1 µM
  relative viability: 0.265
NCI-H2347; first compound 0.3162 µM
  relative viability: 0.315
NCI-H2347; first compound 1 µM
  relative viability: 0.283
NCI-H2126; first compound 0.01 µM
  relative viability: 0.66
NCI-H2126; first compound 0.03162 µM
  relative viability: 0.631
NCI-H2126; first compound 0.1 µM
  relative viability: 0.609
NCI-H2126; first compound 0.3162 µM
  relative viability: 0.611
NCI-H2126; first compound 1 µM
  relative viability: 0.533
NCI-H2228; first compound 0.01 µM
  relative viability: 0.538
NCI-H2228; first compound 0.03162 µM
  relative viability: 0.416
NCI-H2228; first compound 0.1 µM
  relative viability: 0.49
NCI-H2228; first compound 0.3162 µM
  relative viability: 0.523
NCI-H2228; first compound 1 µM
  relative viability: 0.543
NCI-H358; first compound 0.01 µM
  relative viability: 0.179
NCI-H358; first compound 0.03162 µM
  relative viability: 0.145
NCI-H358; first compound 0.1 µM
  relative viability: 0.201
NCI-H358; first compound 0.3162 µM
  relative viability: 0.182
NCI-H358; first compound 1 µM
  relative viability: 0.167
NCI-H1734; first compound 0.01 µM
  relative viability: 0.498
NCI-H1734; first compound 0.03162 µM
  relative viability: 0.517
NCI-H1734; first compound 0.1 µM
  relative viability: 0.49
NCI-H1734; first compound 0.3162 µM
  relative viability: 0.439
NCI-H1734; first compound 1 µM
  relative viability: 0.415
HCC-15; first compound 0.01 µM
  relative viability: 0.63
HCC-15; first compound 0.03162 µM
  relative viability: 0.675
HCC-15; first compound 0.1 µM
  relative viability: 0.697
HCC-15; first compound 0.3162 µM
  relative viability: 0.577
HCC-15; first compound 1 µM
  relative viability: 0.602
NCI-H522; first compound 0.01 µM
  relative viability: 1.01
NCI-H522; first compound 0.03162 µM
  relative viability: 0.915
NCI-H522; first compound 0.1 µM
  relative viability: 0.797
NCI-H522; first compound 0.3162 µM
  relative viability: 0.859
NCI-H522; first compound 1 µM
  relative viability: 0.745
LXF-289; first compound 0.01 µM
  relative viability: 0.239
LXF-289; first compound 0.03162 µM
  relative viability: 0.223
LXF-289; first compound 0.1 µM
  relative viability: 0.187
LXF-289; first compound 0.3162 µM
  relative viability: 0.213
LXF-289; first compound 1 µM
  relative viability: 0.247
HCC-78; first compound 0.01 µM
  relative viability: 0.353
HCC-78; first compound 0.03162 µM
  relative viability: 0.363
HCC-78; first compound 0.1 µM
  relative viability: 0.275
HCC-78; first compound 0.3162 µM
  relative viability: 0.292
HCC-78; first compound 1 µM
  relative viability: 0.32
A-427; first compound 0.01 µM
  relative viability: 0.728
A-427; first compound 0.03162 µM
  relative viability: 0.766
A-427; first compound 0.1 µM
  relative viability: 0.677
A-427; first compound 0.3162 µM
  relative viability: 0.636
A-427; first compound 1 µM
  relative viability: 0.792
NCI-H647; first compound 0.01 µM
  relative viability: 0.239
NCI-H647; first compound 0.03162 µM
  relative viability: 0.18
NCI-H647; first compound 0.1 µM
  relative viability: 0.0909
NCI-H647; first compound 0.3162 µM
  relative viability: 0.224
NCI-H647; first compound 1 µM
  relative viability: 0.211
NCI-H1975; first compound 0.01 µM
  relative viability: 0.333
NCI-H1975; first compound 0.03162 µM
  relative viability: 0.349
NCI-H1975; first compound 0.1 µM
  relative viability: 0.333
NCI-H1975; first compound 0.3162 µM
  relative viability: 0.378
NCI-H1975; first compound 1 µM
  relative viability: 0.404
NCI-H1792; first compound 0.01 µM
  relative viability: 0.857
NCI-H1792; first compound 0.03162 µM
  relative viability: 0.663
NCI-H1792; first compound 0.1 µM
  relative viability: 0.856
NCI-H1792; first compound 0.3162 µM
  relative viability: 0.996
NCI-H1792; first compound 1 µM
  relative viability: 0.788
SK-LU-1; first compound 0.01 µM
  relative viability: 0.173
SK-LU-1; first compound 0.03162 µM
  relative viability: 0.175
SK-LU-1; first compound 0.1 µM
  relative viability: 0.166
SK-LU-1; first compound 0.3162 µM
  relative viability: 0.195
SK-LU-1; first compound 1 µM
  relative viability: 0.181
